Data as given in the supplement of paper PMC10307832.

What was measured:
Experiment in all cases: relative viability (nuclei count vs DMSO), 5 days (fraction); higher = more cells survive
[1] = compound: CC1CC(=O)N(C2=CN=C(N=C2N1C3CCCC3)NC4=C(C=C(C=C4)C(=O)NC5CCN(CC5)C)OC)C [NPK76-II-72-1] + CC(=O)c1c(C)c2cnc(Nc3ccc(N4CCNCC4)cn3)nc2n(C2CCCC2)c1=O [Palbociclib] (partner 0.5 µM)
How it was run: (§1)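 Each reported value is a median over duplicate plates. It expresses relative viability: treated-well nuclei count divided by vehicle-well nuclei count. Lung cancer cell lines in 1536-well plates were dosed by pin tool a day after seeding, alone with one drug or with a fixed anchor-drug dose plus five library-drug doses (not always all listed) in √10 steps, and nuclei were counted after 5 days.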

BI-2536 + Palbociclib = compound: CC[C@@H]1C(=O)N(C)c2cnc(Nc3ccc(C(=O)NC4CCN(C)CC4)cc3OC)nc2N1C1CCCC1 [BI-2536] + CC(=O)c1c(C)c2cnc(Nc3ccc(N4CCNCC4)cn3)nc2n(C2CCCC2)c1=O [Palbociclib] (partner 0.5 µM)
How it was run: as §1

NPK76-II-72-1 + AZD7762 = compound: CC1CC(=O)N(C2=CN=C(N=C2N1C3CCCC3)NC4=C(C=C(C=C4)C(=O)NC5CCN(CC5)C)OC)C [NPK76-II-72-1] + NC(=O)Nc1cc(-c2cccc(F)c2)sc1C(=O)N[C@H]1CCCNC1 [AZD7762] (partner 0.2 µM)
How it was run: as §1

[2] = compound: CC1CC(=O)N(C2=CN=C(N=C2N1C3CCCC3)NC4=C(C=C(C=C4)C(=O)NC5CCN(CC5)C)OC)C [NPK76-II-72-1] + CCNC(=O)c1noc(-c2cc(C(C)C)c(O)cc2O)c1-c1ccc(CN2CCOCC2)cc1 [Luminespib] (partner 0.01 µM)
How it was run: as §1

Cell Line | relative viability ([1]; first compound 0.01 µM) | relative viability ([1]; first compound 0.03162 µM) | relative viability ([1]; first compound 0.1 µM) | relative viability ([1]; first compound 0.3162 µM) | relative viability ([1]; first compound 1 µM) | relative viability (BI-2536 + Palbociclib; first compound 0.01 µM) | relative viability (BI-2536 + Palbociclib; first compound 0.03162 µM) | relative viability (BI-2536 + Palbociclib; first compound 0.1 µM) | relative viability (BI-2536 + Palbociclib; first compound 0.3162 µM) | relative viability (BI-2536 + Palbociclib; first compound 1 µM) | relative viability (NPK76-II-72-1 + AZD7762; first compound 0.01 µM) | relative viability (NPK76-II-72-1 + AZD7762; first compound 0.03162 µM) | relative viability (NPK76-II-72-1 + AZD7762; first compound 0.1 µM) | relative viability (NPK76-II-72-1 + AZD7762; first compound 0.3162 µM) | relative viability (NPK76-II-72-1 + AZD7762; first compound 1 µM) | relative viability ([2]; first compound 0.01 µM) | relative viability ([2]; first compound 0.03162 µM) | relative viability ([2]; first compound 0.1 µM) | relative viability ([2]; first compound 0.3162 µM) | relative viability ([2]; first compound 1 µM)
LU99A | 0.404 | 0.437 | 0.425 | 0.393 | 0.443 | 0.37 | 0.445 | 0.318 | 0.152 | 0.147 | 0.425 | 0.298 | 0.503 | 0.248 | 0.402 | 0.261 | 0.212 | 0.304 | 0.238 | 0.278
NCI-H1355 | 0.377 | 0.427 | 0.397 | 0.383 | 0.439 | 0.415 | 0.405 | 0.385 | 0.171 | 0.158 | 0.686 | 0.792 | 0.857 | 0.767 | 0.748 | 0.678 | 0.716 | 0.756 | 0.67 | 0.763
HCC-78 | 0.423 | 0.44 | 0.425 | 0.385 | 0.502 | 0.566 | 0.475 | 0.431 | 0.436 | 0.318 | 0.634 | 0.574 | 0.593 | 0.521 | 0.755 |  |  |  |  | 
NCI-H1563 |  |  |  |  |  |  |  |  |  |  |  |  |  |  |  | 0.5 | 0.627 | 0.578 | 0.519 | 0.504
HCC-15 | 0.722 | 0.849 | 0.705 | 0.694 | 0.745 | 0.704 | 0.66 | 0.547 | 0.17 | 0.144 | 1.18 | 1.32 | 0.549 | 1.16 | 1.23 | 0.226 | 0.256 | 0.275 | 0.16 | 0.318
EKVX | 0.334 | 0.401 | 0.368 |  | 0.464 | 0.416 | 0.404 | 0.37 | 0.182 | 0.173 | 0.672 | 0.629 | 0.718 |  | 0.83 | 0.735 | 0.863 | 0.912 | 0.888 | 0.95
NCI-H2087 | 0.236 | 0.255 | 0.242 | 0.22 | 0.254 | 0.225 | 0.189 | 0.203 | 0.0781 | 0.118 | 1.06 | 1.32 | 1.26 | 1.28 | 1.32 | 0.154 | 0.16 | 0.136 | 0.158 | 0.185
LK-2 | 0.624 | 0.636 | 0.668 | 0.653 | 0.565 | 0.586 | 0.525 | 0.464 | 0.15 | 0.106 | 0.367 | 0.42 | 0.439 | 0.323 | 0.379 | 0.183 | 0.214 | 0.215 | 0.191 | 0.191
NCI-H1437 | 0.31 | 0.311 | 0.292 | 0.272 | 0.3 | 0.332 | 0.281 | 0.273 | 0.159 | 0.197 | 1.14 | 1.15 | 1.1 | 1.04 | 1.17 | 1.03 | 1.13 | 1.09 | 1.03 | 1.08
